Patent US9012497B2, “Cyclohexyl carbamate compounds as active anti-cellulite ingredients” (Symrise AG, priority 2010, dated 2015)

Assays:
3T3-L1 cells [1] = test: Adipogenesis assay (in vitro), Nile Red lipid staining; assay type: cell-based; conditions: Mus musculus, mean values of at least 2 independent tests, read-out: Adipogenesis inhibition IC50
Description: 3T3-L1 cells (mouse embryonic fibroblast-like adipocyte cell line) are seeded in a 48-well plate with collagen I-coating in a concentration of 3×10^4 cells/well. After 72 h cultivation at 37° C. and 5% CO2 in DMEM (Dulbecco's Modified Eagle Medium), enriched with 10% calf serum, various concentrations of the test substances in DMEM, enriched with 10% foetal calf serum and to which are added 1 μg/ml insulin, 0.25 μM dexamethasone and 0.5 mM IBMX (3-isobutyl-1-methylxanthine), are added and incubated for a further 48 h. A media change takes place, in that DMEM, enriched with 10% foetal calf serum and with 1 μg/ml insulin added, are applied. After renewed cultivation for 48 h, a further media change takes place, in which DMEM, enriched with 10% foetal calf serum, is applied.
After a further incubation for 72 h, the intracellularly stored lipids are quantified as a measure for the differentiation of the cells by measuring the fluorescence after staining of the lipids with the fluorescent dye Nile Red.
The inhibition of the adipogenesis in the presence of the test substances is calculated according to the following equation:
[formula] wherein RFU test substance=relative fluorescent units of the wells with test substance and with cells RFU control=relative fluorescent units of the wells without test substance, but with cells RFU control without cells=relative fluorescent units of the wells without test substance and without cells The IC50 is calculated from the adipogenesis inhibition [%] in a series of dilutions of tested samples. This is the concentration at which the adipogenesis is 50% inhibited.

3T3-L1 cells [2] = test: Lipolysis assay, in vitro on 3T3-L1 cells, free glycerol release; assay type: cell-based; conditions: Mus musculus; differentiated 3T3-L1 cells, about 20 hours of incubation; mean values from at least 2 independent tests; read-out: Stimulation of lipolysis EC50
Description: 3T3-L1 cells (mouse embryonic fibroblast-like adipocyte cell line) are seeded in a 48-well plate with collagen I-coating in a concentration of 3×10^4 cells/well. The cultivation and differentiation of the cells takes place analogously to the details in Example 2 (adipogenesis assay).
Various concentrations of the test substances are applied to the cells in DMEM, with bovine serum albumen added. After about 20 hours of incubation, the quantification of free glycerol in the supernatant of the cells takes place, which is released by the cells after hydrolysis of triglycerides in the cells and is a measure of the lipolysis of the cells. The quantification of the free glycerol is carried out based on an enzymatic method with a free glycerol reagent.
The stimulation of the lipolysis in the presence of test substances is calculated according to the following equation:
[formula] wherein A test substance=absorption of the wells with test substance and with cells A test substance without cells=absorption of the wells with test substance without cells (absorption control) A control=absorption of the wells without test substance, but with cells A control without cells=absorption of the wells without test substance and without cells
The EC50 is calculated from the lipolysis stimulation [%] in a series of dilutions of tested samples. This is the concentration at which the lipolysis is 50% stimulated.

pancreatic lipase (PL) = biological target: T1, pancreatic lipase (PL) (Sus scrofa, UniProt P00591); test: Inhibition of PL, MUF oleate hydrolysis; assay type: biochemical; conditions: mean values of at least 2 independent tests
T1 construct: purchased Sigma-Aldrich
T1 sequence (P00591 1-450): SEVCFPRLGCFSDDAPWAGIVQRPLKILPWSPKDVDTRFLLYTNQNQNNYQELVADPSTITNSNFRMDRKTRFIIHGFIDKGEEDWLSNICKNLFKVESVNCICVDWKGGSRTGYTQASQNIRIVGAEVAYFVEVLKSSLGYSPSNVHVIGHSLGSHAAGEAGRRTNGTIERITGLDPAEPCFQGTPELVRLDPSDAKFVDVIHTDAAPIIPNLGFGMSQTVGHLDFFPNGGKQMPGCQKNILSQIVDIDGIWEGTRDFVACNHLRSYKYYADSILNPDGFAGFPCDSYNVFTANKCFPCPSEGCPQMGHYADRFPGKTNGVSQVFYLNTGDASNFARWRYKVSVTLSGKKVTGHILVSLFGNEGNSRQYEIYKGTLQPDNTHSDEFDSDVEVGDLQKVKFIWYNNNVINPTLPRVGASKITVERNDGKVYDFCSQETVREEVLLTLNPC
Source text: (§1) Lipogenesis is perceived as the storage of triglycerides in adipocytes. The inhibition of this storage can take place by means of the inhibition of the activity of extracellular lipoprotein lipase (LPL) in that the hydrolysis of extracellular triglycerides and therefore the absorption of free fatty acids by adipocytes are reduced. As a preliminary test, the inhibition of pancreatic lipase (PL) is investigated.
PL (Sigma-Aldrich), in the presence of test substances in different use concentrations has methylumbelliferyl oleate (MUF oleate) added as a substrate. Fluorescent methylumelliferon (MUF), is produced by hydrolysis of the MUF oleate by PL and is quantified. The inhibition of the hydrolysis of the MUF oleate is a measure of the inhibition of activity of the PL.
[formula] wherein MUF test substance=MUF concentration of the wells with test substance and with PL MUF control=MUF concentration of the wells without test substance, but with PL MUF control without PL=MUF concentration of the wells without test substance and without PL
The IC50 is calculated from the inhibition of the PL [%] in a series of dilutions of tested samples. This is the concentration, at which the activity of the PL is 50% inhibited.

lipoprotein lipase (LPL) = biological target: T2, lipoprotein lipase (LPL) (Mus musculus, UniProt P11152); test: Inhibition of LPL (lipogenesis assay), MUF oleate hydrolysis; assay type: biochemical; conditions: LPL obtained from differentiated 3T3-L1 cells; mean values of at least 2 independent tests
T2 construct: endogenous in cells; host or cells: differentiated 3T3-L1 cells (mouse); heparin-released supernatant
T2 sequence (P11152 28-474): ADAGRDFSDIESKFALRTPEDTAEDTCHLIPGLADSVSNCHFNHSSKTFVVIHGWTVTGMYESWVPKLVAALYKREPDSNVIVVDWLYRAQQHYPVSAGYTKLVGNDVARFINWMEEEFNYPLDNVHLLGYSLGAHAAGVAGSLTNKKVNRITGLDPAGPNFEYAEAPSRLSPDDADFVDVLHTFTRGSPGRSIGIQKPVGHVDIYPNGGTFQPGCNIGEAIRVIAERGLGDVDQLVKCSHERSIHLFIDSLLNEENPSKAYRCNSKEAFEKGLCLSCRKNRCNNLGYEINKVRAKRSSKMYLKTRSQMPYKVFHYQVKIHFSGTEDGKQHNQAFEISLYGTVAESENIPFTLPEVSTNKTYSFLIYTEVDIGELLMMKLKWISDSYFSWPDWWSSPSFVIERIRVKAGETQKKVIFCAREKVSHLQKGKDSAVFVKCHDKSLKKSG
Source text: as §1
The results of the inhibition of the PL are used as a preliminary test and are confirmed on LPL. To obtain LPL, 3T3-L1 cells (mouse embryonic fibroblast-like adipocyte cell line) are seeded in a 6-well plate with collagen I-coating in a concentration of 3×10^5 cells/well. The cultivation and differentiation of the cells takes place analogously to the details in Example 2 (adipogenesis assay). During the differentiation LPL is increasingly expressed. The LPL is present in a membrane-bound state and is released by one hour incubation with heparin solution at 2-8° C. to the supernatant of the cells.
The LPL thus obtained, in the presence of test substances in different use concentrations, has methylumbelliferyl oleate (MUF oleate) added as the substrate. Fluorescent methylumbelliferyl (MUF) is produced by hydrolysis of the MUF oleate by LPL and is quantified. The inhibition of the hydrolysis of the MUF oleate is a measure of the inhibition of the activity of the LPL and therefore the lipogenesis.
[formula] wherein MUF test substance=MUF concentration of the wells with test substance and with LPL MUF control=MUF concentration of the wells without test substance, but with LPL MUF control without LPL=MUF concentration of the wells without test substance and without LPL
The IC50 is calculated from the inhibition of the LPL [%] in a series of dilutions of tested samples. This is the concentration at which the activity of the LPL and therefore the lipogenesis is 50% inhibited.

IC50 (pancreatic lipase (PL)) [µM]	IC50 (lipoprotein lipase (LPL)) [µM]	Compound	IC50 (3T3-L1 cells [1]) [µM]	EC50 (3T3-L1 cells [2]) [µM]
		Cc1ccc(NC(=O)OC2CC(C)CC(C)C2)cc1 (stereo not shown) [BIO1822, p-Tolyl-carbamic acid 3,5-dimethyl-cyclohexyl ester]	170	
		CC1CC(C)CC(OC(=O)NC2CCCCC2)C1 (stereo not shown) [BIO1743, Cyclohexyl-carbamic acid 3,5-dimethyl-cyclohexyl ester]	91	1890
340	870	C=C(C)C1CCC(C)CC1OC(=O)NCCCC (stereo not shown) [BIO1615, Butyl-carbamic acid 2-isopropenyl-5-methyl-cyclohexyl ester]	160	820
1240		CCCCCCNC(=O)OC1CCCCC1C(C)C (stereo not shown) [BIO1851, Hexyl-carbamic acid 2-isopropyl-cyclohexyl ester]	86	1170
		CC1CC(C)CC(OC(=O)Nc2ccccc2)C1 (stereo not shown) [BIO1685, Phenyl-carbamic acid 3,5-dimethyl-cyclohexyl ester]	340	600
670		CCCCNC(=O)OC1CCCC(C)C1C (stereo not shown) [BIO1842, Butyl-carbamic acid 2,3-dimethyl-cyclohexyl ester]	150	230
470		COc1ccccc1NC(=O)OC1C(C)CCC(C)C1C (stereo not shown) [BIO1701, (2-Methoxy-phenyl)-carbamic acid 2,3,6-trimethyl-cyclohexyl ester]	110	
400		CCNC(=O)OC1CC(C)CC(C)C1 (mixture of isomers) [BIO1561, Ethyl-carbamic acid 3,5-dimethyl-cyclohexyl ester]		
130		CC1CC(C)CC(OC(=O)NCc2ccccc2)C1 (stereo not shown) [BIO1745, Benzyl-carbamic acid 3,5-dimethyl-cyclohexyl ester]	120	
2170		CC(C)C1CCCCC1OC(=O)NCc1ccccc1 (stereo not shown) [BIO1748, Benzyl-carbamic acid 2-isopropyl-cyclohexyl ester]	59	810
240		CCNC(=O)OC1CCCC(C)C1C (stereo not shown) [BIO1581, Ethyl-carbamic acid 2,3-dimethyl-cyclohexyl ester]	160	
230		COc1ccccc1NC(=O)OC1CCCCC1C(C)C (stereo not shown) [BIO1744, (2-Methoxy-phenyl)-carbamic acid 2-isopropyl-cyclohexyl ester]		
420		CCNC(=O)OC1CCC(C)C(C)C1 (stereo not shown) [BIO1582, Ethyl-carbamic acid 3,4-dimethyl-cyclohexyl ester]		
520	680	CCCCCCNC(=O)OC1CC(C)CC(C)(C)C1 (stereo not shown) [BIO1850, Hexyl-carbamic acid 3,3,5-trimethyl-cyclohexyl ester]	360	
550		CCCCNC(=O)OC1CC(C)CC(C)C1 (stereo not shown) [BIO1840, Butyl-carbamic acid 3,5-dimethyl-cyclohexyl ester]	160	700
1860		COc1ccccc1NC(=O)OC1CC(C)CC(C)(C)C1 (stereo not shown) [BIO1703, (2-Methoxy-phenyl)-carbamic acid 3,3,5-trimethyl-cyclohexyl ester]	51	
		CCNC(=O)OC1CC2CCC1(C)C2(C)C (stereo not shown) [BIO1573, Ethyl-carbamic acid 1,7,7-trimethyl-bicyclo[2.2.1]hept-2-yl ester]		350
510		CCCCNC(=O)OC1CCCC(C)C1 (stereo not shown) [BIO1821, Butyl-carbamic acid 3-methyl-cyclohexyl ester]		
		Cc1ccc(NC(=O)OC2CCCCC2C(C)C)cc1 (stereo not shown) [BIO1824, p-Tolyl-carbamic acid 2-isopropyl-cyclohexyl ester]	92	510
420		CC1CCCC(OC(=O)Nc2ccccc2O)C1C (stereo not shown) [BIO1643, (2-Hydroxy-phenyl)-carbamic acid 2,3-dimethyl-cyclohexyl ester]	14	
		O=C(Nc1ccccc1)OC1CCCCC1 [BIO1741, Phenyl-carbamic acid cyclohexyl ester]	440	360
		CC(C)(C)C1CCC(OC(=O)NC2CCCCC2)CC1 (stereo not shown) [BIO1747, Cyclohexyl-carbamic acid 4-tert-butyl-cyclohexyl ester]	120	610
560		CCNC(=O)OC1CCC(C(C)C)C(C)C1 (stereo not shown) [BIO1560, Ethyl-carbamic acid 4-isopropyl-3-methyl-cyclohexyl ester]		
